Measured values reported in patent US20240208932A1, “ARYLAMINO DERIVATIVE ESTROGEN RECEPTOR MODULATOR AND USE THEREOF” (XIZANG HAISCO PHARMACEUTICAL CO., LTD., priority 2021, published 2024).

Key:
[1] = target: ERα (Homo sapiens (Human), UniProt P03372); test: Degradation effect of compounds on ERα in MCF-7 and CAMA-1 cells (automated western blot, 24 h); format: cell-based; details: ERα degradation in MCF-7 cells; for DC50: 24 hours; for Dmax at 0.1 µM: MCF7, @100 nM
Description: 2. Degradation Effect of Compounds on ERα in MCF-7 and CAMA-1 Cells
Breast cancer cells MCF-7 and CAMA-1 were purchased from ATCC, the cell media were all EMEM+10% FBS, and the cells were cultured in an incubator at 37° C. under 5% CO2. On the first day, the cells in an exponential phase were collected. With a 10% css-FBS phenol red-free medium, the cell suspension was adjusted to a corresponding concentration, plated at 300000 cells/well and incubated for 3 days. After 3 days, the liquid in the well was aspirated, and a 10% css-FBS phenol red-free medium containing the compound to be tested was added and cultured in an incubator at 37° C. under 5% CO2. After 24 hours, 60 μl of RIPA lysis solution (containing 1× protease inhibitor cocktail) was added to each well, lysed on ice for 15 minutes, and then centrifuged at 4° C. for 10 minutes at 12000 g. The supernatant protein samples were collected, and protein quantification was performed by a BCA method. ERα was detected using fully automatic protein expression quantitative analysis, which involved diluting the protein to be tested to 1.5 mg/mL. 4 μL of the diluted protein samples were added to 1 μL of 5×Master Mix (provided in the kit), and the prepared samples were denatured at 95° C. for 5 min and placed on ice for use. Antibody Diluent II (provided in the kit) was used to dilute the primary antibody, in which the dilution ratios of ERα (CST, 13258S) and β-actin (CST, 3700) antibodies were 1:40 and 1:500, respectively, the secondary antibody was a 1:1 mixture of goat anti-mouse and goat anti-rabbit secondary antibodies, and the chromogenic solution was a 1:1 mixture of Lumino-S and Peroxide. The prepared reagents were successively added to an assay plate according to instructions of the kit and detected on an instrument. Western blot band processing was performed using “Compass for SW”, a fully automatic protein expression quantitative analysis software, in which western blot bands were automatically simulated based on signal values. The proportion of ERα relative to the solvent control at different drug concentrations according to equation (1), wherein Acompound was the relative peak area of ERα in the treated group, and Asolvent was the relative peak area of ERα in the solvent control group.
ERα%=Acompound/Asolvent×100 equation (1)
DC50 calculation: Calculation was performed according to equation (1), and using Graphpad Prism 8.0 software, the compound concentration DC50 values at which the degradation rate of ERα was 50% were calculated using a non-linear four-parameter function (Non linear regression (curve fit)) (Table 1).

[2] = system: MCF-7 cells; test: Inhibitory effect of compounds on the proliferation of MCF-7 cells (CellTiter-Glo, 7 days); format: cell-based; details: Homo sapiens, MCF7, 168 h, 7 days incubation
Description: 1. Inhibitory Effect of Compounds on the Proliferation of MCF-7 Cells
Breast cancer cells MCF-7 were purchased from ATCC, the cell media were all EMEM+10% FBS, and the cells were cultured in an incubator at 37° C. under 5% CO2. On the first day, cells in the exponential growth phase were collected and cultured in a 10% css-FBS phenol red-free medium without cytokines for 3 days. After the completion of culture, a 10% css-FBS phenol red-free medium was used to adjust the cell suspension to the corresponding concentration and same was plated to 1000 cells/well. P-estradiol and compounds of different concentrations were added. A plate without adding any reagent was taken and used as Day0 with a reading value RLUday0, determined with CellTiter-Glo kit, placed in an incubator and incubated for 7 days. After the incubation was completed, according to operation instructions for a CellTiter-Glo kit (Promega, G7573), 50 μL of CellTiter-Glo solutions, which were pre-melted and equilibrated to room temperature, were added to each well, and the mixtures were uniformly mixed for 2 min using a microplate shaker. The plate was placed at room temperature for 10 min, and then […] signal values were measured using a microplate reader (PHERAstar FSX). Chemiluminescence readouts were processed using origin9.2 software and the DoseResp function was used to calculate the GIsovalue for the inhibitory activity of compounds on the proliferation of cells (Table 1). The results were processed according to equation (1), the inhibition rate of the compound at different concentrations was calculated, and the GI50 value of the compound with a proliferation rate of 50% was calculated using origin9.2 software, wherein RLUcompound was the readout of the treated group, and RLUcontrol was the average value of the solvent control group.
Growth %=(RLUcompound−RLUday0)/(RLUcontrol−RLUday0)×100 equation (1)

[3] = target: CYP2C19 (Homo sapiens (Human), UniProt P33261); test: CYP450 enzyme inhibition test, human liver microsomes; format: in vitro ADME; details: incubation concentration 0-50/100 μM
Description: 6. CYP450 Enzyme Inhibition Test
The purpose of this study was to evaluate the effect of the test compound on the activity of five isoenzymes (CYP1A2, CYP2C9, CYP2C19, CYP2D6 and CYP3A4) of human liver microsomal cytochrome P450 (CYP) by using an in vitro testing system. The specific probe substrates of CYP450 isoenzymes were incubated with human liver microsomes and test compounds of different concentrations, and reduced nicotinamide adenine dinucleotide phosphate (NADPH) was added to initiate the reaction. After the completion of the reaction, the sample was treated and liquid chromatography-tandem mass spectrometry (LC-MS/MS) was used to quantitatively detect metabolites produced by specific substrates, changes in CYP enzyme activity were determined, and IC50 value was calculated to evaluate the inhibitory potential of the test compound on each CYP enzyme subtype.

Chain of ERα (P03372 whole entry): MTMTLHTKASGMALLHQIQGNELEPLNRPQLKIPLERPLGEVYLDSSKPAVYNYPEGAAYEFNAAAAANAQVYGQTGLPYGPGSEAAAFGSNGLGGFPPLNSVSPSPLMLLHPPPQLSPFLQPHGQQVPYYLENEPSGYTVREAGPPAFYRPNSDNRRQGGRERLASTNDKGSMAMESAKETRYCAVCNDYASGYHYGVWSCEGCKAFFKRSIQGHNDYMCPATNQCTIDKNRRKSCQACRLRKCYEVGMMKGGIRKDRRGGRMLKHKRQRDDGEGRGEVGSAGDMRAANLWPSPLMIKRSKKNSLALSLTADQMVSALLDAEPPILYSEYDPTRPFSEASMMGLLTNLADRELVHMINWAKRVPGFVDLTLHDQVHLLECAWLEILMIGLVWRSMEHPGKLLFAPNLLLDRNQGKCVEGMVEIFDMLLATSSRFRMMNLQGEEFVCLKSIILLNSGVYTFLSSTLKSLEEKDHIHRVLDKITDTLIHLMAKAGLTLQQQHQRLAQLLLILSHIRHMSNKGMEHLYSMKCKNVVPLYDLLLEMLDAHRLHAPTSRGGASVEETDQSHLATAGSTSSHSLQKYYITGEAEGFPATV
Chain of CYP2C19 (P33261 whole entry): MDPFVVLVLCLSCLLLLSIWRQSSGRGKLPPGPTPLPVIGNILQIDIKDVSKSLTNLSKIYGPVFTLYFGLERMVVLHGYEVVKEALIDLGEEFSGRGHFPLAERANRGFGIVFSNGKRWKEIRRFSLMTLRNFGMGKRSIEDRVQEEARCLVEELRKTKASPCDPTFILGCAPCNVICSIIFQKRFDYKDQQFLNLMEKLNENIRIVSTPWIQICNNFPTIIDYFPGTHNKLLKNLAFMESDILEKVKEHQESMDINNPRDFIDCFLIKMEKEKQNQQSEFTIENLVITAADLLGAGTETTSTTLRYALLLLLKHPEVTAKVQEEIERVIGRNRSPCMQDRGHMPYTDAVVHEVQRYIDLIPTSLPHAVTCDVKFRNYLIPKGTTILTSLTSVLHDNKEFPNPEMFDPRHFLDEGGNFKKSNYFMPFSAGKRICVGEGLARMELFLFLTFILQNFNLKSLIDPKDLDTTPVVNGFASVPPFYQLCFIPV

| DC50 [1] | Dmax at 0.1 µM [1] | GI50 [2] | IC50 [3] | Structure (SMILES) |
| --- | --- | --- | --- | --- |
| 0.47 nM | 70% |  |  | C[C@@H]1Cc2c([nH]c3ccc(F)cc23)[C@@H](c2c(F)cc(N[C@H]3CCN(CCCF)C3)cc2F)N1CC(F)(F)F [Compound 18, (S)—N-(3,5-difluoro-4-((1R,3R)-6-fluoro-3-methyl-2-(2,2,2-trifluoroethyl)-2,3,4,9-tetrahydro-1H-pyrido[3,4-b]indol-1-yl)phenyl)-1-(3-fluoropropyl)pyrrolidin-3-amine] |
| 1.23 nM | 88% |  |  | C[C@@H]1Cc2c([nH]c3cc(F)ccc23)[C@@H](c2c(F)cc(N[C@H]3CCN(CCCF)C3)cc2F)N1CC(F)(F)F [Compound 32, (S)—N-(3,5-difluoro-4-((1R,3R)-7-fluoro-3-methyl-2-(2,2,2-trifluoroethyl)-2,3,4,9-tetrahydro-1H-pyrido[3,4-b]indol-1-yl)phenyl)-1-(3-fluoropropyl)pyrrolidin-3-amine] |
|  |  | 0.219 nM | > 50000 nM | C#Cc1ccc2c3c([nH]c2c1)[C@@H](c1c(F)cc(N[C@H]2CCN(CCCF)C2)cc1F)N(CC(F)(F)F)[C@H](C)C3 [Compound 43, (S)—N-(4-((1R,3R)-7-ethynyl-3-methyl-2-(2,2,2-trifluoroethyl)-2,3,4,9-tetrahydro-1H-pyrido[3,4-b]indol-1-yl)-3,5-difluorophenyl)-1-(3-fluoropropyl)pyrrolidin-3-amine] |
